Test results published in ChEMBL document CHEMBL1629647, “Preclinical evaluation of GS-9160, a novel inhibitor of human immunodeficiency virus type 1 integrase” (Antimicrob Agents Chemother, 2009).
pEC50: −log10 of the molar value.

Columns and labels:
[1] = Cytotoxicity against human SupT1 cells infected with HIV1 3B; assay type: cell-based, SUP-T1; conditions: SupT1 cells infected with HIV-1 3B
[2] = system: Human immunodeficiency virus 1; test: Antiviral activity against HIV1 3B infected in human MT-2 cells by two fold dilution method in presence of 10% FBS; assay type: functional, organism-based; conditions: Human immunodeficiency virus 1, 3B, MT2
[3] = system: Human immunodeficiency virus 1; test: Selectivity ratio of EC50 for antiviral activity against HIV1 harboring L74M mutation in catalytic core domain of integrase to EC50 for antiviral activity against wild-type HIV1 3B; assay type: functional
[4] = system: Human immunodeficiency virus 1; test: Selectivity ratio of EC50 for antiviral activity against HIV1 harboring E138K mutation in catalytic core domain of integrase to EC50 for antiviral activity against wild-type HIV1 3B; assay type: functional
[5] = system: Human immunodeficiency virus 1; test: Selectivity ratio of EC50 for antiviral activity against HIV1 harboring E92V mutation in catalytic core domain of integrase to EC50 for antiviral activity against wild-type HIV1 3B; assay type: functional
[6] = system: Human immunodeficiency virus 1; test: Selectivity ratio of EC50 for antiviral activity against NNRTI-resistant HIV1 harboring RTK103N mutant gene to EC50 for antiviral activity against wild-type HIV1 3B; assay type: functional
[7] = system: Human immunodeficiency virus 1; test: Selectivity ratio of EC50 for antiviral activity against HIV1 harboring E92V, G140S and V151A mutation in catalytic core domain of integrase to EC50 for antiviral activity against wild-type HIV1 3B; assay type: functional
[8] = system: Human immunodeficiency virus 1; test: Selectivity ratio of EC50 for antiviral activity against HIV1 harboring G140S mutation in catalytic core domain of integrase to EC50 for antiviral activity against wild-type HIV1 3B; assay type: functional
[9] = system: Human immunodeficiency virus 1; test: Selectivity ratio of EC50 for antiviral activity against HIV1 harboring N155S mutation in catalytic core domain of integrase to EC50 for antiviral activity against wild-type HIV1 3B; assay type: functional
[10] = system: Human immunodeficiency virus 1; test: Selectivity ratio of EC50 for antiviral activity against HIV1 harboring E138K and Q148K mutation in catalytic core domain of integrase to EC50 for antiviral activity against wild-type HIV1 3B; assay type: functional
[11] = system: Human immunodeficiency virus 1; test: Selectivity ratio of EC50 for antiviral activity against HIV1 harboring T66I mutation in catalytic core domain of integrase to EC50 for antiviral activity against wild-type HIV1 3B; assay type: functional
[12] = system: Human immunodeficiency virus 1; test: Selectivity ratio of EC50 for antiviral activity against PI-resistant HIV1 harboring […], V82A and L90M mutant gene to EC50 for antiviral activity against wild-type HIV1 3B; assay type: functional
[13] = system: Human immunodeficiency virus 1; test: Selectivity ratio of EC50 for antiviral activity against NRTI-resistant HIV1 harboring RTK65R mutant gene to EC50 for antiviral activity against wild-type HIV1 3B; assay type: functional
[14] = system: Human immunodeficiency virus 1; test: Selectivity ratio of EC50 for antiviral activity against HIV1 harboring E92V and V151A mutation in catalytic core domain of integrase to EC50 for antiviral activity against wild-type HIV1 3B; assay type: functional
[15] = system: Human immunodeficiency virus 1; test: Selectivity ratio of EC50 for antiviral activity against NNRTI-resistant HIV1 harboring RTY181C mutant gene to EC50 for antiviral activity against wild-type HIV1 3B; assay type: functional
[16] = system: Human immunodeficiency virus 1; test: Selectivity ratio of EC50 for antiviral activity against HIV1 harboring V151A mutation in catalytic core domain of integrase to EC50 for antiviral activity against wild-type HIV1 3B; assay type: functional
[17] = system: Human immunodeficiency virus 1; test: Selectivity ratio of EC50 for antiviral activity against NRTI-resistant HIV1 harboring RT-6TAMs mutant gene to EC50 for antiviral activity against wild-type HIV1 3B; assay type: functional
[18] = system: Human immunodeficiency virus 1; test: Selectivity ratio of EC50 for antiviral activity against HIV1 harboring N155H mutation in catalytic core domain of integrase to EC50 for antiviral activity against wild-type HIV1 3B; assay type: functional
[19] = system: Human immunodeficiency virus 1; test: Selectivity ratio of EC50 for antiviral activity against HIV1 harboring E92Q mutation in catalytic core domain of integrase to EC50 for antiviral activity against wild-type HIV1 3B; assay type: functional
[20] = system: Human immunodeficiency virus 1; test: Selectivity ratio of EC50 for antiviral activity against HIV1 harboring Q148K mutation in catalytic core domain of integrase to EC50 for antiviral activity against wild-type HIV1 3B; assay type: functional
[21] = system: Human immunodeficiency virus 1; test: Selectivity ratio of EC50 for antiviral activity against PI-resistant HIV1 harboring […], L90M mutant gene to EC50 for antiviral activity against wild-type HIV1 3B; assay type: functional
[22] = system: Human immunodeficiency virus 1; test: Selectivity ratio of EC50 for antiviral activity against HIV1 harboring G140S and Q148H mutation in catalytic core domain of integrase to EC50 for antiviral activity against wild-type HIV1 3B; assay type: functional
[23] = system: Human immunodeficiency virus 1; test: Selectivity ratio of EC50 for antiviral activity against HIV1 harboring L74M and E92V mutation in catalytic core domain of integrase to EC50 for antiviral activity against wild-type HIV1 3B; assay type: functional
[24] = system: Human immunodeficiency virus 1; test: Selectivity ratio of EC50 for antiviral activity against NRTI-resistant HIV1 harboring RTM184V mutant gene to EC50 for antiviral activity against wild-type HIV1 3B; assay type: functional
[25] = system: Human immunodeficiency virus 1; test: Selectivity ratio of EC50 for antiviral activity against GS-9160-resistant HIV1 selected after 5 passages to EC50 for antiviral activity against wild-type HIV1 3B; assay type: functional
[26] = system: Human immunodeficiency virus 1; test: Selectivity ratio of EC50 for antiviral activity against GS-9160-resistant HIV1 selected after 9 passages to EC50 for antiviral activity against wild-type HIV1 3B; assay type: functional
[27] = system: Human immunodeficiency virus 1; test: Selectivity ratio of EC50 for antiviral activity against EFV-resistant HIV1 selected after 7 passages to EC50 for antiviral activity against wild-type HIV1 3B; assay type: functional
[28] = system: Human immunodeficiency virus 1; test: Selectivity ratio of EC50 for antiviral activity against 3TC-resistant HIV1 selected after 8 passages to EC50 for antiviral activity against wild-type HIV1 3B; assay type: functional
[29] = system: Human immunodeficiency virus 1; test: Selectivity ratio of EC50 for antiviral activity against GS-9160-resistant HIV1 selected after 8 passages to EC50 for antiviral activity against wild-type HIV1 3B; assay type: functional
[30] = system: Human immunodeficiency virus 1; test: Selectivity ratio of EC50 for antiviral activity against 3TC-resistant HIV1 selected after 4 passages to EC50 for antiviral activity against wild-type HIV1 3B; assay type: functional
[31] = system: Human immunodeficiency virus 1; test: Selectivity ratio of EC50 for antiviral activity against APV-resistant HIV1 selected after 4 passages to EC50 for antiviral activity against wild-type HIV1 3B; assay type: functional
[32] = system: Human immunodeficiency virus 1; test: Selectivity ratio of EC50 for antiviral activity against APV-resistant HIV1 selected after 2 passages to EC50 for antiviral activity against wild-type HIV1 3B; assay type: functional
[33] = system: Human immunodeficiency virus 1; test: Selectivity ratio of EC50 for antiviral activity against GS-9160-resistant HIV1 selected after 6 passages to EC50 for antiviral activity against wild-type HIV1 3B; assay type: functional
[34] = system: Human immunodeficiency virus 1; test: Selectivity ratio of EC50 for antiviral activity against EFV-resistant HIV1 selected after 3 passages to EC50 for antiviral activity against wild-type HIV1 3B; assay type: functional

SMILES	pEC50 [2]	Ratio EC50 [3]	Ratio EC50 [4]	Ratio EC50 [5]	Ratio EC50 [6]	Ratio EC50 [7]	Ratio EC50 [8]	Ratio EC50 [9]	Ratio EC50 [10]	Ratio EC50 [11]	Ratio EC50 [12]	Ratio EC50 [13]	Ratio EC50 [14]	Ratio EC50 [15]	Ratio EC50 [16]	Ratio EC50 [17]	Ratio EC50 [18]	Ratio EC50 [19]	Ratio EC50 [20]	Ratio EC50 [21]	further results
O=C1Nc2ccc(Cl)cc2[C@@](C#CC2CC2)(C(F)(F)F)O1 [EFAVIRENZ]	8.17	–	–	–	–	–	–	–	–	–	–	–	–	–	–	–	–	–	–	–	CC50 [1]: 15500 nM
Nc1nc(=O)n([C@@H]2CS[C@H](CO)O2)cc1F [EMTRICITABINE]	6.49	1	1	1	1	2	1	3	2	1	1	26	4	0.4	3	23	2	2	2	1	Ratio EC50 [22]: 0.8; Ratio EC50 [23]: 2; Ratio EC50 [24]: >55
Nc1ccn([C@@H]2CS[C@H](CO)O2)c(=O)n1 [LAMIVUDINE]	–	–	–	–	–	–	–	–	–	–	–	–	–	–	–	–	–	–	–	–	Ratio EC50 [25]: 1.8; Ratio EC50 [26]: 1.4; Ratio EC50 [27]: 1; Ratio EC50 [28]: >272; Ratio EC50 [29]: 5.7; Ratio EC50 [30]: >272; Ratio EC50 [31]: 9; Ratio EC50 [32]: 7; Ratio EC50 [33]: 4.5; Ratio EC50 [34]: 2
Cc1cccc(C)c1OCC(=O)N[C@@H](Cc1ccccc1)[C@@H](O)C[C@H](Cc1ccccc1)NC(=O)[C@H](C(C)C)N1CCCNC1=O [LOPINAVIR]	8.32	1	1	1	1	2	1	2	1	4	9	3	1	1	1	5	2	1	1	29	Ratio EC50 [22]: 1; Ratio EC50 [23]: 1; Ratio EC50 [24]: 3
CC(C)OC(=O)OCOP(=O)(CO[C@H](C)Cn1cnc2c(N)ncnc21)OCOC(=O)OC(C)C.O=C(O)/C=C/C(=O)O [TENOFOVIR DISOPROXIL FUMARATE]	8.17	1	2	2	1	2	1	2	2	1	1	4	2	1	2	9	2	1	1	1	Ratio EC50 [22]: 0.3; Ratio EC50 [23]: 1; Ratio EC50 [24]: 1
